pIC50: −log10 of the molar value.
Assays:
[1] = target: T1, Estrogen receptor (Homo sapiens, UniProt P03372)
T1 sequence (P03372 whole entry): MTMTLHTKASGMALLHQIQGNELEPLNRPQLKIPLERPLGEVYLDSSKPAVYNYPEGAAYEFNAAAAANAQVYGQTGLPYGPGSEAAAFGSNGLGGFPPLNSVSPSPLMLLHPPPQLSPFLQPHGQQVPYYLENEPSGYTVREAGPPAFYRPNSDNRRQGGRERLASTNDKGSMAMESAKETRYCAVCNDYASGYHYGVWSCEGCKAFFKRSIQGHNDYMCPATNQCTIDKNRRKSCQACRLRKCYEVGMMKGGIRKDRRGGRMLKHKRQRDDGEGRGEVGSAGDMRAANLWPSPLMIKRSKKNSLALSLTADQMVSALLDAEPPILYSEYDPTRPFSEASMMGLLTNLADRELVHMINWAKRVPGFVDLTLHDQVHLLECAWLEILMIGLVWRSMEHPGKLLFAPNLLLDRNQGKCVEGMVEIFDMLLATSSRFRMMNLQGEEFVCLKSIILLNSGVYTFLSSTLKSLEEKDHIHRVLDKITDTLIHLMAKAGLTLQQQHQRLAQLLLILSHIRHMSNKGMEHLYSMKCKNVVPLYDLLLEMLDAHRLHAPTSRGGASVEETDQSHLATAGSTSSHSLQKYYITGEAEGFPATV
Description: Inhibition of human estrogen receptor alpha

[2] = target: Estrogen receptor beta (Homo sapiens, UniProt Q92731)
Chain of Estrogen receptor beta (Q92731 whole entry): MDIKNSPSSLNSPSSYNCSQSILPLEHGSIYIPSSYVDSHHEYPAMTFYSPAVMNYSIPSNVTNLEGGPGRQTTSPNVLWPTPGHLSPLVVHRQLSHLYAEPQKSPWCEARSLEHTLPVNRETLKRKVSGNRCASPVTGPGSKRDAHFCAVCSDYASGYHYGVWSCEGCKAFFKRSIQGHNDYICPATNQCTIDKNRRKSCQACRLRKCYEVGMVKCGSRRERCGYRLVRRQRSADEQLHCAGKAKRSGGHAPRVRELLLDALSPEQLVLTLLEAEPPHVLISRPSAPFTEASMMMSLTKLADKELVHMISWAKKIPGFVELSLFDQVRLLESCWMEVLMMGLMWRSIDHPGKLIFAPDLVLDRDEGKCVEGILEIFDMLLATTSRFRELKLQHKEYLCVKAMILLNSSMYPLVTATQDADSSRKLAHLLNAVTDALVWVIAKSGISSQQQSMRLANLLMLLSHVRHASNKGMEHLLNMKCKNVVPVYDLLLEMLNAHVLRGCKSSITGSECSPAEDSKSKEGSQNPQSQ
Description: Inhibition of human estrogen receptor beta

SMILES | pIC50 [1] | pIC50 [2]
NC1=C(c2ccc(O)cc2)C(=O)c2cc(O)ccc21 | < 5.30 | 5.94
CCSC1=C(c2ccc(O)cc2)C(=O)c2cc(O)cc(O)c21 | 6.24 | 6.82
CCSC1=C(c2ccc(O)cc2)C(=O)c2ccc(O)cc21 | 6.32 | 
CC/N=C1/C(c2ccc(O)cc2)=C(O)c2cc(O)cc(O)c21 | < 5.30 | 5.57
O=C1C(c2ccc(O)cc2)=C(O)c2ccc(O)cc21 | < 5.30 | 
O=C1C(c2ccc(O)cc2)=C(O)c2cc(O)cc(O)c21 | < 5.30 | 
O=C1C(c2ccc(O)cc2)=C(c2ccccc2)c2ccc(O)cc21 | 8.05 | 8.05
CSC1=C(c2ccc(O)cc2)C(=O)c2ccc(O)cc21 | 8.51 | 8.89
COc1ccc2c(c1)C(Br)=C(c1ccc(O)cc1)C2=O | 5.74 | 6.70
O=C1C(c2ccc(O)cc2)=C(Br)c2cc(O)ccc21 | 8.28 | 8.77
CC1=C(c2ccc(O)cc2)C(=O)c2c(O)cc(O)cc21 |  | 8.62
O=C1C(c2ccc(O)cc2)=C(c2ccccc2)c2cc(O)ccc21 | 8.00 | 8.00
